Experimental findings from ChEMBL document CHEMBL1201862, “PubChem BioAssay data set” (2004) are described below.

Some test systems named below: SK-MEL-28; NCI-H23; COLO 205; CAKI-1; HOP-62; MOLT-4; NCI/ADR-RES; MDA-N; HL-60; U-251; SK-MEL-2; PC-3; 786-0; MDA-MB-435; SNB-19; NCI-H522; SN12C; Malme-3M; M14; K562.
Holding throughout (assay): growth of human tumour cells (NCI), 48 h

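Cultured in 96-well plates, cells were exposed to test compound for 48 hours across five concentrations. GI50 = concentration required for 50% inhibition of growth.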 Activity calls are given as the source filed them. Cut-off read from the data, not from the text of the source: active = GI50 up to about 1.1 µM and inactive = higher.

On to `CN(C)c1ccc(NN=C2SC(=N\c3ccccc3)/C(=N/c3ccccc3)S2)cc1`, for which the GI50 in the test with SK-MEL-28 was > 100 µM (inactive); in the test with NCI-H23, 12.1 µM (inactive); with COLO 205, 37.4 µM (inactive); in the test with CAKI-1, 76.4 µM (inactive); in the test on HOP-62 it was > 100 µM (inactive); in the test with MOLT-4, 47.2 µM (inactive). For the same compound, the GI50 in the test with NCI/ADR-RES is 67.8 µM (inactive); in the test with MDA-N, 20.3 µM (inactive); with HL-60 it was 2.97 µM (inactive); in the test on U-251, > 100 µM (inactive); in the test with SK-MEL-2, 13.6 µM (inactive); with PC-3, > 100 µM (inactive). Besides, the GI50 in the test with 786-0 was > 100 µM (inactive); in the test on MDA-MB-435, 20.4 µM (inactive); in the test with SNB-19 it was > 100 µM (inactive); in the test with NCI-H522 it was 6.03 µM (inactive); with SN12C, 43.4 µM (inactive); in the test on Malme-3M it was 2.38 µM (inactive).
As for `NC(=O)C1CCCNC1` (configuration not stated), the GI50 in the test with SK-MEL-28 was > 100 µM (inactive); in the test on NCI-H23, > 100 µM (inactive); in the test with COLO 205 it was > 100 µM (inactive); with CAKI-1 it was > 100 µM (inactive); in the test with HOP-62, > 100 µM (inactive); with MOLT-4, 24.3 µM (inactive). For the same compound, the GI50 in the test with NCI/ADR-RES, in the test on MDA-N, in the test with HL-60, in the test on U-251, in the test with SK-MEL-2 and with PC-3 was > 100 µM (inactive) throughout. The GI50 with 786-0, in the test on MDA-MB-435, with SNB-19, with NCI-H522, in the test on M14 and in the test with SN12C was > 100 µM (inactive) throughout. Further, the GI50 in the test with Malme-3M is > 100 µM (inactive).
On to `N#CC12CNCC1CN=N2` (configuration not stated), for which the GI50 with K562, in the test on SK-MEL-28, in the test with NCI-H23, with COLO 205, with CAKI-1 and with HOP-62 was > 100 µM (inactive) each time. Besides, the GI50 in the test with MOLT-4, in the test with NCI/ADR-RES, in the test with MDA-N, in the test on HL-60, in the test on U-251 and in the test with SK-MEL-2 was > 100 µM (inactive) throughout. Moreover, the GI50 in the test on PC-3, in the test with 786-0, in the test on MDA-MB-435, in the test with SNB-19, with NCI-H522 and in the test on SN12C was > 100 µM (inactive) each time. In addition, the GI50 with Malme-3M was > 100 µM (inactive).
For `Cc1cc(C)nc(NS(=O)(=O)c2ccc(Nc3nncc(=O)n3N)cc2)n1`, the GI50 in the test with K562 was 11.1 µM (inactive); in the test on SK-MEL-28, 26.5 µM (inactive); in the test on NCI-H23 it was 14.4 µM (inactive); in the test on COLO 205 it was 35.4 µM (inactive); in the test with CAKI-1 it was 16 µM (inactive); in the test with HOP-62 it was 18.7 µM (inactive). Moreover, the GI50 in the test with MOLT-4 was 15.5 µM (inactive); with NCI/ADR-RES it was 23.6 µM (inactive); in the test on MDA-N it was 16 µM (inactive); in the test with HL-60 it was 17.4 µM (inactive); in the test with U-251, 17.7 µM (inactive); in the test on SK-MEL-2 it was 59 µM (inactive). Further, the GI50 in the test on PC-3 was 21.5 µM (inactive); with 786-0 it was 15.8 µM (inactive); with MDA-MB-435, 18.6 µM (inactive); with SNB-19 it was 30.6 µM (inactive); with NCI-H522, 12.8 µM (inactive); with M14 it was 34.8 µM (inactive). In addition, the GI50 in the test on Malme-3M was 19.2 µM (inactive).
Turning to `CCOC(=O)Cn1nnc2cc(Nc3nc4ccccc4nc3C(=O)OCC)ccc21`, the GI50 in the test with K562 was > 100 µM (inactive); with SK-MEL-28, > 100 µM (inactive); in the test on NCI-H23, > 100 µM (inactive); with COLO 205, > 100 µM (inactive); in the test with CAKI-1 it was > 100 µM (inactive); in the test with HOP-62, 24.4 µM (inactive). The GI50 in the test on MOLT-4 was > 100 µM (inactive); in the test with NCI/ADR-RES, 64.9 µM (inactive); in the test with MDA-N it was > 100 µM (inactive); in the test with HL-60, > 100 µM (inactive); with U-251 it was 36 µM (inactive); in the test with SK-MEL-2 it was 78.2 µM (inactive). In addition, the GI50 is > 100 µM (inactive) with PC-3; 67 µM (inactive) in the test on 786-0; > 100 µM (inactive) in the test on MDA-MB-435; 29 µM (inactive) with SNB-19; > 100 µM (inactive) in the test on NCI-H522; > 100 µM (inactive) in the test on M14. In addition, the GI50 in the test with SN12C and with Malme-3M was > 100 µM (inactive) in each case.
Take `C(=N\C12CC3CC(CC(C3)C1)C2)/C1CCCCC1`: the GI50 with K562, in the test with NCI-H23, with COLO 205, in the test with CAKI-1, in the test with HOP-62 and in the test with MOLT-4 was > 100 µM (inactive) in each case. In addition, the GI50 with NCI/ADR-RES, in the test with MDA-N, in the test with HL-60, with U-251, in the test with SK-MEL-2 and in the test on PC-3 was > 100 µM (inactive) each time. Moreover, the GI50 in the test with 786-0, in the test on MDA-MB-435, in the test on SNB-19, in the test with NCI-H522, in the test with M14 and in the test on SN12C was > 100 µM (inactive) each time. Moreover, in the test on Malme-3M, the GI50 was > 100 µM (inactive).
Regarding `O=C(O)Cc1ccc(Nc2nc3cc(C(F)(F)F)ccc3nc2C(=O)O)cc1`, the GI50 with SK-MEL-28, in the test with NCI-H23, with COLO 205, in the test on CAKI-1, in the test with HOP-62 and with MOLT-4 was > 100 µM (inactive) throughout. Also, the GI50 in the test on NCI/ADR-RES, with MDA-N, with HL-60, in the test on U-251, with SK-MEL-2 and with PC-3 was > 100 µM (inactive) each time. Further, the GI50 in the test with 786-0, with MDA-MB-435, with SNB-19, with NCI-H522, in the test on M14 and in the test on SN12C was > 100 µM (inactive) throughout. The GI50 in the test with Malme-3M was > 100 µM (inactive).
Take `CC(=O)c1csc2c1C(=O)c1ccccc1C2=O`: the GI50 in the test on K562 is 3.92 µM (inactive); with SK-MEL-28, 1.92 µM (inactive); with NCI-H23 it was 1.26 µM (inactive); with COLO 205, 1.74 µM (inactive); in the test with CAKI-1, 3.99 µM (inactive); in the test with HOP-62, 1.97 µM (inactive). Further, the GI50 with NCI/ADR-RES is 2.88 µM (inactive); in the test on MDA-N, 1.22 µM (inactive); with HL-60, 0.29 µM (active); in the test on U-251 it was 2.88 µM (inactive); in the test with SK-MEL-2 it was 3.06 µM (inactive); in the test on PC-3, 7.57 µM (inactive). Moreover, the GI50 was 2.07 µM (inactive) with 786-0; 0.9 µM (active) in the test on MDA-MB-435; 2.12 µM (inactive) with SNB-19; 1.78 µM (inactive) in the test with NCI-H522; 1.07 µM (active) in the test with M14; 2.25 µM (inactive) in the test with SN12C. The GI50 in the test on Malme-3M is 0.483 µM (active).
